# Bridge positions count the residues as written; N and C are the ends. Square brackets hold non-standard residues; d marks the D form. Peptide text beside a SMILES is read from it.
# Tested on: H1N1 A/PR/8-MC/1934
# Set-up: species or system BALB/c female mice
# Settings: mouse, in vivo
structure (smiles),measurement,value
"CC[C@@H](C)[C@H]1NC(=O)[C@@H](Cc2ccccc2)NC(=O)[C@@H]([C@H](C)O)NC(=O)[C@@H](Cc2ccccc2)NC(=O)[C@@H](Cc2c[nH]c3ccccc23)NC(=O)[C@@H]([C@H](C)O)NC(=O)[C@H](NC(=O)[C@H](CCCCN)NC(=O)[C@H](CCCCN)NC(=O)[C@H](CCCNC(=N)N)NC(=O)[C@@H](N)CCCNC(=N)N)CSSC[C@H](C(=O)O)NC(=O)[C@@H](CC(N)=O)NC1=O [PSP IV A17, H-RRKKctwftfinc-OH] (H-RRKK[dC][dT][dW][dF][dT][dF][dI][dN][dC]-OH; disulfide 5-13)",morbidity of influenza infected mice,completely inhibited the morbidity

# — patent US10538554B2, “Peptides and uses therefor as antiviral agents” (priority 2015, dated 2020)
